Structures are written as SMILES.

The source of these data is US8148538B2, “N-alkyl-heterocyclyl carboxamide derivatives” (Bayer Cropscience AG, priority 2005, dated 2012).

The subject of assay [1] is Sphaerotheca fuliginea. The experiment in a line: In vivo test on Sphaerotheca fuliginea (powdery mildew), preventive spray on gherkin plants. As to conditions: under these conditions (gherkin plants, comparison compounds of prior art). The method, then: (§1) The active ingredient tested is prepared by homogenisation in DMSO (5% of the final volume), acetone (10% of the final volume) and tween 80 10% (5 μl/mg active ingredient).
Gherkin plants (Vert petit de Paris variety) in starter cups, sown on a 50/50 peat soil-pozzolana substrate and grown at 20° C./23° C., are treated at cotyledon Z11 stage by spraying with the aqueous suspension described above. Plants, used as controls, are treated with an aqueous solution not containing the active material.
After 24 hours, the plants are contaminated by spraying them with an aqueous suspension of Sphaerotheca fuliginea spores (100 000 spores per ml). The spores are collected from a contaminated plants. The contaminated gerkhin plants are incubated at about 20° C./25° C. and at 60/70% relative humidity.

Assay [2] deals with Botrytis cinerea. The assay can be described thus: In vivo test on Botrytis cinerea (cucumber grey mould), preventive spray on cucumber plants. To be noted: under these conditions (cucumber plants, comparison compounds of prior art). On the procedure:
as §1
Cucumber plants (Marketer variety) in starter cups, sown on a 50/50 peat soil-pozzolana substrate and grown at 18-20° C., are treated at the cotyledon Z11 stage by spraying with the aqueous suspension described above. Plants, used as controls, are treated with an aqueous solution not containing the active material.
After 24 hours, the plants are contaminated by depositing drops of an aqueous suspension of Botrytis cinerea spores (150,000 spores per ml) on upper surface of the leaves. The spores are collected from a 15-day-old culture and are suspended in a nutrient solution composed of: • 20 g/L of gelatin • 50 g/L of cane sugar • 2 g/L of NH4NO3 • 1 g/L of KH2PO4
The contaminated cucumber plants are settled for 5/7 days in a climatic room at 15-11° C. (day/night) and at 80% relative humidity.

The test system of assay [3] is Alternaria brassicae. The assay can be described thus: In vivo test on Alternaria brassicae (leaf spot of crucifers), preventive spray on radish plants. To be noted: under these conditions (radish plants, comparison compound of prior art). On the procedure: The active ingredient tested is prepared by homogenisation in DMSO (5% of the final volume), acetone (10% of the final volume) and tween 80 10% (5 μl/mg active ingredient). Radish plants (Pernot variety) in starter cups, sown on a 50/50 peat soil-pozzolana substrate and grown at 18-20° C., are treated at the cotyledon stage by spraying with the aqueous suspension described above. Plants, used as controls, are treated with an aqueous solution not containing the active material. After 24 hours, the plants are contaminated by spraying them with an aqueous suspension of Alternaria brassicae spores (40,000 spores per cm^3). The spores are collected from a 12 to 13 days-old culture. The contaminated radish plants are incubated for 6-7 days at about 18° C., under a humid atmosphere. Grading is carried out 6 to 7 days after the contamination, in comparison with the control plants. Under these conditions, good (at least 70%) or total protection is observed at a dose of 500 ppm with the following compounds: 1-2, 2-2, 2-5, 3-2, 3-5, 4-3, 4-4, 4-5, 4-6, 5-4, 5-5, 5-7, 6-1, 7-1, 7-3, 7-4, 7-6, 9-3, 10-3, 10-4, 5, 10-6, 10-8, 11-1, 11-2, 12-2, 13-1, 13-3, 13-5, 15-2, 15-3, 16-4, 19-1, 20-1, 21-1, 21-2, 22-2, 22-3, 23-1, 24-1, 24-2, 25-1, 25-3, 26-2, 27-1, 28-2, 30-1, 30-2, 31-1, 32-1 and 33-2.

Assay [4] has as its system Pyrenophora teres. The experiment in a line: In vivo test on Pyrenophora teres (barley net blotch), preventive spray on barley plants. To be noted: under these conditions (barley plants, comparison compound of prior art). On the procedure: as §1
Barley plants (Express variety) in starter cups, sown on a 50/50 peat soil-pozzolana substrate and grown at 12° C., are treated at the 1-leaf stage (10 cm tall) by spraying with the aqueous suspension described above. Plants, used as controls, are treated with an aqueous solution not containing the active material.
After 24 hours, the plants are contaminated by spraying them with an aqueous suspension of Pyrenophora teres spores (12,000 spores per ml). The spores are collected from a 12-day-old culture. The contaminated barley plants are incubated for 24 hours at about 20° C. and at 100% relative humidity, and then for 12 days at 80% relative humidity.

Regarding `Cc1nnsc1C(=O)NC(C)C` [N-isopropyl-4-methyl-1,2,3-thiadiazole-5-carboxamide], the “activity against Sphaerotheca fuliginea” value in assay [1] was “did not show any activity”. Further, the “activity against Botrytis cinerea” value in assay [2] is on record as “did not show any activity”.
With `CCCCCCCCNC(=O)c1snc(Cl)c1Cl` [4-dichloro-N-octylisothiazol-5-carboxamide], the “activity against Alternaria brassicae” value in assay [3] was “did not show any activity”. For the same compound, the “activity against Botrytis cinerea” value in assay [2] is “did not show any activity”.
On to `CCC(C)NC(=O)c1cc(C)oc1C` (stereo not shown) [N-sec-butyl-2,5-dimethyl-3-furamide], for which, in assay [1], the “activity against Sphaerotheca fuliginea” value is “did not show any activity”. Further, the “activity against Pyrenophora teres” value in assay [4] is on record as “did not show any activity”. In addition, in assay [2], the “activity against Botrytis cinerea” value was “did not show any activity”.
